According to US9790169B2, “IDO inhibitors” (BRISTOL-MYERS SQUIBB COMPANY, priority 2015, dated 2017):

Target: human IDO1 (Homo sapiens, UniProt P14902)
Experiment: Assessment of human IDO-1 inhibitory activity in Hela cells (Interferon-gamma stimulated HeLa cells, Ehrlich reagent, absorbance 490 nm)
Format: cell-based
Parameters: endogenous in cells; host or cells: HeLa cells stimulated with interferon-gamma
Conditions: Hela Human IDO-1 cellular assay
Outline: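 HeLa cells pre-incubated with compound 1 h at 37 °C, then stimulated with human IFN-γ (10 ng/ml final) or murine IFN-γ (5 ng/ml final) for 18 h. Kynurenine read with Ehrlich reagent at 490 nm after TCA (3%) and 50 °C treatment; IC50 normalized to unstimulated (100%) and IFN-γ-only (0%) wells.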

Chain of human IDO1 (P14902 whole entry): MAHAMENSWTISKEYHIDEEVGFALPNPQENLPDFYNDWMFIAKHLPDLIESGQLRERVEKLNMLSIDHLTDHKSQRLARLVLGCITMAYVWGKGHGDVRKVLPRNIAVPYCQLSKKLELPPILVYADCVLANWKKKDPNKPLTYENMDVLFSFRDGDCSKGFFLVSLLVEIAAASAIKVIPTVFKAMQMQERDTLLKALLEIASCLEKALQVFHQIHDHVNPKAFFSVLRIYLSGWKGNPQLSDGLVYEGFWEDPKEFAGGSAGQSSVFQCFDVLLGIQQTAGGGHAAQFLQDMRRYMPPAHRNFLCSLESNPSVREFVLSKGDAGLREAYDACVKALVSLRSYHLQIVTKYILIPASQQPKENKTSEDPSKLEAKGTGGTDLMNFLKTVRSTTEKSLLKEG

IC50	Compound
< 50 nM	CCCN(c1ccc(C(CC)CC(=O)O)cc1Nc1cnc(OCC)nc1)C1CCS(=O)(=O)CC1 (single isomer, unassigned) [Example 13 Enantiomer 1, 3-(4-((1,1-Dioxidotetrahydro-2h-thiopyran-4-yl)(propyl)amino)-3-((2-ethoxypyrimidin-5-yl)amino)phenyl)pentanoic acid]
< 5 nM	CCN(c1c(F)cc(C(COC)CC(=O)O)cc1Nc1ccc(C#N)cc1)C1CCOCC1 (single isomer, unassigned) [Example 916, 3-(3-((4-Cyanophenyl)amino)-4-(ethyl(tetrahydro-2H-pyran-4-yl)amino)-5-fluorophenyl)-4-methoxybutanoic acid]
> 50 nM	CCN(c1ccc([C@H](COC)CC(=O)O)cc1NC(=O)Nc1ccc(F)cc1F)C1CCOCC1 (single isomer, unassigned) [Example 442]
< 5 nM	CCN(c1ccc(C(CC(=O)O)C2CC2)cc1Nc1ccc(Cl)cc1)C1CCOCC1 (single isomer, unassigned) [Example 33 Enantiomer 1, 3-(3-((4-Chlorophenyl)amino)-4-(ethyl(tetrahydro-2H-pyran-4-yl)amino)phenyl)-3-cyclopropylpropanoic acid]
< 50 nM	CCC(CC(=O)O)c1ccc(N2CC(O)(c3ccc(F)cc3)C2)c(Nc2ccc(C#N)cc2)c1 (single isomer, unassigned) [Example 1254, 3-(3-((4-cyanophenyl)amino)-4-(3-(4-fluorophenyl)-3-hydroxyazetidin-1-yl)phenyl)pentanoic acid]
< 5 nM	CCCN(c1ccc([C@H](CC)CC(=O)O)cc1Nc1cnc(OCC)nc1)C1CCOCC1 (single isomer, unassigned) [Example 546]
< 5 nM	CCN(c1cc(F)c(C(COC)CC(=O)O)cc1Nc1ccc(C#N)c(F)c1)C1CCOCC1 (single isomer, unassigned) [Example 846, 3-(5-((4-cyano-3-fluorophenyl)amino)-4-(ethyl (tetrahydro-2H-pyran-4-yl)amino)-2-fluorophenyl)-4-methoxybutanoic acid]
< 5 nM	CCN(c1ccc(C(CC(=O)O)C2CC2)cc1NC(=O)Nc1ccc(C)cc1)C1CCOCC1 (single isomer, unassigned) [Example 40 Enantiomer 1, 3-Cyclopropyl-3-(4-(ethyl(tetrahydro-2H-pyran-4-yl)amino)-3-(3-(p-tolyl)ureido)phenyl)propanoic acid]
> 50 nM	COCC(CC(=O)O)c1ccc(N2C[C@@H](C)O[C@@H](C)C2)c(Nc2ccc(Cl)cc2)c1 (single isomer, unassigned) [Example 603]
< 50 nM	CCC(CC(=O)O)c1ccc(N2C[C@@H]3C[C@H]2CN3C(=O)OC)c(Nc2ccc(C#N)cc2)c1 (single isomer, unassigned) [Example 449]
> 50 nM	CCOc1ncc(Nc2cc(C(COC)CC(=O)O)ccc2N2CCOC[C@@H]2C(C)C)cn1 (single isomer, unassigned) [Example 931]
< 50 nM	CCOc1ncc(Nc2cc([C@H](CC)Cc3nnc[nH]3)ccc2N(CC)C2CCOCC2)cn1 [Example 1338, (R)-4-(1-(4H-1,2,4-Triazol-3-yl)butan-2-yl)-N2-(2-ethoxypyrimidin-5-yl)-N1-ethyl-N1-(tetrahydro-2H-pyran-4-yl)benzene-1,2-diamine]
< 5 nM	CCN(c1ccc(C(CC(=O)O)C2CC2)cc1Nc1ccc(Cl)cc1)C1CCS(=O)(=O)CC1 (single isomer, unassigned) [Example 339 Enantiomer 1, 3-(3-((4-Chlorophenyl)amino)-4-((1,1-dioxidotetrahydro-2H-thiopyran-4-yl)(ethyl)amino)phenyl)-3-cyclopropylpropanoic acid]
> 50 nM	COCC(CC(=O)O)c1ccc(N(C)C2CCOCC2)c(NC(=O)Nc2ccc(Cl)cc2F)c1 (single isomer, unassigned) [Example 886, 3-(3-(3-(4-Chloro-2-fluorophenyl)ureido)-4-(methyl(tetrahydro-2H-pyran-4-yl)amino)phenyl)-4-methoxybutanoic acid]
< 5 nM	COCCN(c1ccc(C(COC)CC(=O)O)cc1Nc1ccc(Cl)cc1)C1CCOCC1 (single isomer, unassigned) [Example 256 Enantiomer 1, 3-(3-((4-Chlorophenyl)amino)-4-((2-methoxyethyl)(tetrahydro-2H-pyran-4-yl)amino)phenyl)-4-methoxybutanoic acid]
< 50 nM	CCC(CC(=O)O)c1ccc(N(C)C2CCOCC2)c(Nc2ccc(C#N)cc2)c1 (single isomer, unassigned) [Example 866, 3-(3-((4-Cyanophenyl)amino)-4-(methyl(tetrahydro-2H-pyran-4-yl)amino)phenyl)pentanoic acid]
< 5 nM	CC(CC(=O)O)c1ccc(N(CC(C)(C)O)C2CCCCC2)c(Nc2ccc(Cl)cc2)c1 (single isomer, unassigned) [Example 48 Enantiomer 1, 3-(3-((4-Chlorophenyl)amino)-4-(cyclohexyl(2-hydroxy-2-methylpropyl)amino)phenyl)butanoic acid]
< 50 nM	CCN(c1ccc([C@@H](COC)CC(=O)O)cc1Nc1ncc(Cl)cn1)C1CCOCC1 (single isomer, unassigned) [Example 357]
< 5 nM	CCN(c1ccc([C@@H](COC)CC(=O)O)cc1Nc1ccc(Cl)cn1)C1CCOCC1 (single isomer, unassigned) [Example 356]
< 5 nM	CCN(c1ccc([C@H](CC(=O)O)C(F)(F)F)cc1NC(=O)Nc1ccc(Cl)cc1F)C1CCOCC1 (single isomer, unassigned) [Example 1267]
< 50 nM	COCC(CC(=O)O)c1ccc(N2CCOC[C@@H]2C(C)C)c(Nc2ccc(C#N)cc2)c1 (single isomer, unassigned) [Example 929]
< 50 nM	CCN(c1ccc(C(C)CC(=O)O)cc1Nc1cnc(OCC2CC2)nc1)C1CCOCC1 (single isomer, unassigned) [Example 626, 3-(3-((2-(cyclopropylmethoxy)pyrimidin-5-yl)amino)-4-(ethyl(tetrahydro-2H-pyran-4-yl)amino)phenyl)butanoic acid]

More lines, now with the values behind:

Compound	IC50
CCC(CC(=O)O)c1ccc(N2CCN(C(=O)OC(C)(C)C)CC2)c(Nc2ccc(C#N)cc2)c1 (single isomer, unassigned) [Example 674 Enantiomer 1, 3-(4-(4-(tert-Butoxycarbonyl)piperazin-1-yl)-3-((4-cyanophenyl)amino)phenyl)pentanoic acid]	< 50 nM
CCN(c1ccc([C@@H](COC)CC(=O)O)cc1Nc1cccc(OC(F)(F)C(F)F)c1)C1CCOCC1 (single isomer, unassigned) [Example 360]	> 50 nM
CCN(c1ccc([C@@H](COC)CC(=O)O)cc1Nc1ccc(C#N)c(Cl)c1)C1CCOCC1 (single isomer, unassigned) [Example 381]	< 50 nM
CCN(c1ccc(C2(CC(=O)O)CCOCC2)cc1Nc1ccc(Cl)cc1)C1CCOCC1 [Example 155, 2-(4-(3-((4-chlorophenyl)amino)-4-(ethyl(tetrahydro-2H-pyran-4-yl)amino)phenyl)tetrahydro-2H-pyran-4-yl)acetic acid]	< 5 nM
CCOc1ncc(Nc2cc(C(C)(C)CC(=O)O)ccc2N(CCOC)C2CCOCC2)cn1 [Example 17, 3-(3-((2-ethoxypyrimidin-5-yl)amino)-4-((2-methoxyethyl)(tetrahydro-2H-pyran-4-yl)amino)phenyl)-3-methylbutanoic acid]	> 50 nM
CCN(c1ccc(C(COC)CC(=O)O)cc1Nc1ccc(F)cc1)C1CCS(=O)(=O)CC1 (single isomer, unassigned) [Example 172, 3-(4-((1,1-dioxidotetrahydro-2H-thiopyran-4-yl)(ethyl)amino)-3-((4-fluorophenyl)amino)phenyl)-4-methoxybutanoic acid]	< 50 nM
COCC(CC(=O)O)c1ccc(N2CCOC[C@H]2C(C)C)c(Nc2ccc(C#N)cc2)c1 (single isomer, unassigned) [Example 909]	< 50 nM
CCC(CC(=O)O)c1ccc(N(CC)C2CCCOC2)c(Nc2cnc(OC)nc2)c1 (single isomer, unassigned) [Example 68, 3-(4-(ethyl(tetrahydro-2H-pyran-3-yl)amino)-3-((2-methoxypyrimidin-5-yl)amino)phenyl)pentanoic acid]	< 50 nM
CCCN(c1ccc([C@H](COC)CC(=O)O)cc1NC(=O)Nc1ccc(C#N)cc1)C1CCOCC1 (single isomer, unassigned) [Example 577]	> 50 nM
CCOc1ncc(Nc2cc([C@H](CC)CC(=O)Nc3ncco3)ccc2N(CC)C2CCOCC2)cn1 [Example 1346, (R)-3-(3-((2-Ethoxypyrimidin-5-yl)amino)-4-(ethyl(tetrahydro-2H-pyran-4-yl)amino)phenyl)-N-(oxazol-2-yl)pentanamide]	< 50 nM
CCC(CC(=O)O)c1cc(F)c(N(CC)C2CCOCC2)c(Nc2ccc(OC)nc2)c1 (single isomer, unassigned) [Example 137, 3-(4-(ethyl(tetrahydro-2H-pyran-4-yl)amino)-3-fluoro-5-((6-methoxypyridin-3-yl)amino)phenyl) pentanoic acid]	< 50 nM
CCCN(c1ccc([C@H](CC)CC(=O)O)cc1Nc1ccc(Cl)cc1)C1CCOCC1 (single isomer, unassigned) [Example 552]	< 5 nM
CCOc1ncc(Nc2cc(C(CC)CC(=O)O)ccc2N2CCN(C(=O)OC)CC2)cn1 (single isomer, unassigned) [Example 669, 3-(3-((2-Ethoxypyrimidin-5-yl)amino)-4-(4-(methoxycarbonyl)piperazin-1-yl)phenyl)pentanoic acid]	> 50 nM
CCN(c1ccc([C@@H](COC)CC(=O)O)cc1Nc1ccc(C#N)c(F)c1)C1CCOCC1 (single isomer, unassigned) [Example 353]	< 5 nM
CC(CC(=O)O)c1ccc(N2C[C@@H](C)O[C@@H](C)C2)c(NC(=O)Nc2ccc(Cl)cc2F)c1 (single isomer, unassigned) [Example 749 Enantiomer 1]	> 50 nM
